ChEMBL document CHEMBL1201862, “PubChem BioAssay data set” (2004)
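Grown in 96-well plates, cells were treated for 48 hours with each compound at five concentrations. Insufficient inhibition: endpoint recorded as highest concentration tested. Here, GI50 denotes the concentration required for 50% inhibition of growth.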 Active and inactive are the calls of the source. No stated cut-off is given here; in the data, active = GI50 up to about 1.1 µM and inactive = higher.

Columns and labels:
Assay in all cases: NCI-60 cell line screen, 48 h
UO-31 = test system: UO-31
DMS-114 = test system: DMS-114
LOX IMVI = test system: LOX IMVI
Malme-3M = test system: Malme-3M
DMS-273 = test system: DMS-273
SN12C = test system: SN12C
IGROV-1 = test system: IGROV-1
HL-60 = test system: HL-60
SNB-78 = test system: SNB-78
HCT-116 = test system: HCT-116
SK-OV-3 = test system: SK-OV-3
786-0 = test system: 786-0
NCI-H460 = test system: NCI-H460
DLD-1 = test system: DLD-1
CCRF-CEM = test system: CCRF-CEM
RXF 631 = test system: RXF 631
OVCAR-8 = test system: OVCAR-8
LXFL 529 = test system: LXFL 529
A498 = test system: A498
OVCAR-5 = test system: OVCAR-5
ACHN = test system: ACHN
SK-MEL-2 = test system: SK-MEL-2
NCI-H522 = test system: NCI-H522
HOP-18 = test system: HOP-18
SNB-19 = test system: SNB-19
HOP-62 = test system: HOP-62
SNB-75 = test system: SNB-75
U-251 = test system: U-251
SK-MEL-5 = test system: SK-MEL-5
HCC 2998 = test system: HCC 2998
A549 = test system: A549
M14 = test system: M14
UACC-62 = test system: UACC-62
RXF 393 = test system: RXF 393
EKVX = test system: EKVX
SF-268 = test system: SF-268
OVCAR-4 = test system: OVCAR-4
CAKI-1 = test system: CAKI-1
M19-MEL = test system: M19-MEL
TK-10 = test system: TK-10
UACC-257 = test system: UACC-257
NCI-H226 = test system: NCI-H226
OVCAR-3 = test system: OVCAR-3
SK-MEL-28 = test system: SK-MEL-28
K562 = test system: K562
SF-539 = test system: SF-539
HT-29 = test system: HT-29
KM12 = test system: KM12
HOP-92 = test system: HOP-92
NCI-H23 = test system: NCI-H23
XF498 = test system: XF498
SW-620 = test system: SW-620
SF-295 = test system: SF-295
HCT-15 = test system: HCT-15
KM-20L2 = test system: KM-20L2
COLO 205 = test system: COLO 205
MOLT-4 = test system: MOLT-4
RPMI-8226 = test system: RPMI-8226
SR = test system: SR

Nc1ccc2c(c1)C(=O)N(OS(=O)(=O)c1ccccc1)C2=O
GI50 (UO-31): > 100 µM (inactive) | GI50 (DMS-114): > 100 µM (inactive) | GI50 (LOX IMVI): 35.5 µM (inactive) | GI50 (Malme-3M): 94.4 µM (inactive) | GI50 (DMS-273): > 100 µM (inactive) | GI50 (SN12C): > 100 µM (inactive) | GI50 (IGROV-1): > 100 µM (inactive) | GI50 (HL-60): 46.5 µM (inactive) | GI50 (SNB-78): > 100 µM (inactive) | GI50 (HCT-116): > 100 µM (inactive) | GI50 (SK-OV-3): > 100 µM (inactive) | GI50 (786-0): > 100 µM (inactive) | GI50 (NCI-H460): > 100 µM (inactive) | GI50 (DLD-1): 52.4 µM (inactive) | GI50 (CCRF-CEM): 76.6 µM (inactive) | GI50 (RXF 631): > 100 µM (inactive) | GI50 (OVCAR-8): 56.9 µM (inactive) | GI50 (LXFL 529): 82 µM (inactive) | GI50 (A498): > 100 µM (inactive) | GI50 (OVCAR-5): > 100 µM (inactive) | GI50 (ACHN): > 100 µM (inactive) | GI50 (SK-MEL-2): > 100 µM (inactive) | GI50 (NCI-H522): 21.5 µM (inactive) | GI50 (HOP-18): > 100 µM (inactive) | GI50 (SNB-19): > 100 µM (inactive) | GI50 (HOP-62): > 100 µM (inactive) | GI50 (SNB-75): > 100 µM (inactive) | GI50 (U-251): > 100 µM (inactive) | GI50 (SK-MEL-5): > 100 µM (inactive) | GI50 (HCC 2998): > 100 µM (inactive) | GI50 (A549): > 100 µM (inactive) | GI50 (M14): > 100 µM (inactive) | GI50 (UACC-62): > 100 µM (inactive) | GI50 (RXF 393): > 100 µM (inactive) | GI50 (EKVX): > 100 µM (inactive) | GI50 (SF-268): > 100 µM (inactive) | GI50 (OVCAR-4): > 100 µM (inactive) | GI50 (CAKI-1): > 100 µM (inactive) | GI50 (M19-MEL): > 100 µM (inactive) | GI50 (TK-10): > 100 µM (inactive) | GI50 (UACC-257): > 100 µM (inactive) | GI50 (NCI-H226): > 100 µM (inactive) | GI50 (OVCAR-3): > 100 µM (inactive) | GI50 (SK-MEL-28): > 100 µM (inactive) | GI50 (K562): 86.1 µM (inactive) | GI50 (SF-539): > 100 µM (inactive) | GI50 (HT-29): > 100 µM (inactive) | GI50 (KM12): > 100 µM (inactive) | GI50 (HOP-92): > 100 µM (inactive) | GI50 (NCI-H23): > 100 µM (inactive) | GI50 (XF498): > 100 µM (inactive) | GI50 (SW-620): 49.8 µM (inactive) | GI50 (SF-295): > 100 µM (inactive) | GI50 (HCT-15): > 100 µM | GI50 (KM-20L2): > 100 µM (inactive) | GI50 (COLO 205): 56.4 µM (inactive)

CC(C)C1=CC(=O)C(C)(C2=NC(C)(C)CO2)c2ccccc21 (stereo not given)
GI50 (UO-31): 61.2 µM (inactive) | GI50 (DMS-114): 51.4 µM (inactive) | GI50 (Malme-3M): > 100 µM (inactive) | GI50 (DMS-273): > 100 µM (inactive) | GI50 (MOLT-4): 67.3 µM (inactive) | GI50 (SN12C): > 100 µM (inactive) | GI50 (IGROV-1): > 100 µM (inactive) | GI50 (HL-60): > 100 µM (inactive) | GI50 (HCT-116): > 100 µM (inactive) | GI50 (SK-OV-3): 88.5 µM (inactive) | GI50 (786-0): > 100 µM (inactive) | GI50 (NCI-H460): > 100 µM (inactive) | GI50 (DLD-1): > 100 µM (inactive) | GI50 (CCRF-CEM): > 100 µM (inactive) | GI50 (RPMI-8226): 78.2 µM (inactive) | GI50 (RXF 631): 95.7 µM (inactive) | GI50 (OVCAR-8): > 100 µM (inactive) | GI50 (LXFL 529): 94.4 µM (inactive) | GI50 (ACHN): > 100 µM (inactive) | GI50 (SK-MEL-2): > 100 µM (inactive) | GI50 (NCI-H522): 32.9 µM (inactive) | GI50 (HOP-18): 34.6 µM (inactive) | GI50 (SNB-19): > 100 µM (inactive) | GI50 (HOP-62): > 100 µM (inactive) | GI50 (SNB-75): 96.4 µM (inactive) | GI50 (U-251): > 100 µM (inactive) | GI50 (SK-MEL-5): > 100 µM (inactive) | GI50 (A549): > 100 µM (inactive) | GI50 (M14): > 100 µM (inactive) | GI50 (UACC-62): > 100 µM (inactive) | GI50 (RXF 393): > 100 µM (inactive) | GI50 (EKVX): 96.6 µM (inactive) | GI50 (SF-268): > 100 µM (inactive) | GI50 (OVCAR-4): > 100 µM (inactive) | GI50 (SR): 60.3 µM (inactive) | GI50 (CAKI-1): > 100 µM (inactive) | GI50 (M19-MEL): > 100 µM (inactive) | GI50 (TK-10): > 100 µM (inactive) | GI50 (UACC-257): 63.8 µM (inactive) | GI50 (NCI-H226): 51.5 µM (inactive) | GI50 (OVCAR-3): > 100 µM (inactive) | GI50 (SK-MEL-28): > 100 µM (inactive) | GI50 (K562): 50.4 µM (inactive) | GI50 (SF-539): > 100 µM (inactive) | GI50 (HT-29): > 100 µM (inactive) | GI50 (KM12): > 100 µM (inactive) | GI50 (HOP-92): > 100 µM (inactive) | GI50 (NCI-H23): > 100 µM (inactive) | GI50 (XF498): > 100 µM (inactive) | GI50 (SW-620): > 100 µM (inactive) | GI50 (SF-295): > 100 µM (inactive) | GI50 (HCT-15): > 100 µM | GI50 (KM-20L2): > 100 µM (inactive) | GI50 (COLO 205): > 100 µM (inactive)
